Where a name gives a salt, the structure may show the parent alone.
Columns and labels:
[1] = target: norepinephrine transporter site (Rattus norvegicus, UniProt Q63380); experiment: Norepinephrine reuptake inhibition assay ([3H]nisoxetine binding, forebrain membranes); conditions: read-out: NE Uptake, mean % inhibition
Protocol: (§1) Monoamine transporter binding assays (reuptake inhibition assays) were performed by NovaScreen using standard radioligand binding assays. The transporter binding assays are described briefly below:
(§2) Reactions were terminated by rapid vacuum filtration onto glass fiber filters.

NMDA receptor [2] = experiment: [3H]MK-801 binding assay, synaptic plasma membranes from rat cortex; conditions: read-out: [^3H]MK-801 data IC50
Protocol: Synaptic plasma membranes (SPMs) from rat cortex were prepared as follows. […] The cortices from 25 rats were thawed and pooled. […] The extensive washing procedure utilized in this assay was designed to minimize the concentrations of glutamate and glycine (co-agonists at the NMDA receptor-ionophore complex) present in the membrane preparation.
On the day of assay, aliquots of SPM were thawed and resuspended in 75 vols of 5 mM K-EDTA, pH 7.0.
The SPM pellet was resuspended in assay buffer (30 mM EPPS, 1 mM K-EDTA, pH 7.0) by polytron. […] Binding was started by the addition of the tissue homogenate. The assay was terminated by the addition of 4 ml ice-cold buffer, followed by filtration over glass-fiber filters (Schleicher & Schuell No. 30) on a Millipore 12-well filtration manifold. […] Radioactivity on the filters was measured using Fisherbrand Scinti-Safe scintillation cocktail. Samples were shaken for 45-60 min on a shaker platform to solubilize the radioactivity. Counting for ^3H was performed in a Beckman 6000IC LS Scintillation Counter for 4 min per sample.

NMDA receptor [3] = experiment: NMDA assay: fura-2 measurement of cytosolic calcium in cultured rat cerebellar granule cells; format: cell-based
Protocol: All culture media, antibiotics, and enzymes, with the exception of fetal calf serum (Hyclone Laboratories, Logan, UT), were purchased from Sigma Chemical Co., St. Louis, MO. Fura-2/AM was obtained from Molecular Probes, Eugene, OR, and was prepared freshly in dimethylsulfoxide (DMSO) before use. Ionomycin (Calbiochem) was stored as a stock solution in DMSO. Nifedipine (Sigma) and nimodipine (RBI) were dissolved in absolute ethanol. […] All other agents were dissolved in phosphate-buffered saline (PBS), and adjusted to pH 7.4
Briefly, primary cultures of cerebellar granule neurons were obtained from 8-day-old rats and plated onto squares of Aclar plastic coated with poly-L-lyaine. The plastic squares were placed in 12-well culture plates, and ~7.5 x 10^5 cells were added to each well. […] No changes of culture medium were made until the cells were used for fluorescence recording 6-8 days after plating.
The cells were then rinsed with the same buffer, lacking fura-2/AM, and maintained at room temperature until used for measurement of fluorescence, the Aclar squares were transferred into quartz cuvettes containing 2 ml of the HEPES buffer. […] Fluorescence was measured using excitation and emission wavelengths of 340 and 510 nm, respectively.

[4] = target: dopamine transporter site (Cavia porcellus, UniProt H0WCX4); experiment: Dopamine reuptake inhibition assay ([3H]WIN 35428 binding, striatal membranes); parameters: species or system Guinea pig; conditions: read-out: DA Uptake, mean % inhibition; for inhibition at 0.1 µM: @ 100 nM (top number); for inhibition at 10 µM: @ 10.0 µM (bottom number)
dopamine transporter site, sequence (H0WCX4 1-619): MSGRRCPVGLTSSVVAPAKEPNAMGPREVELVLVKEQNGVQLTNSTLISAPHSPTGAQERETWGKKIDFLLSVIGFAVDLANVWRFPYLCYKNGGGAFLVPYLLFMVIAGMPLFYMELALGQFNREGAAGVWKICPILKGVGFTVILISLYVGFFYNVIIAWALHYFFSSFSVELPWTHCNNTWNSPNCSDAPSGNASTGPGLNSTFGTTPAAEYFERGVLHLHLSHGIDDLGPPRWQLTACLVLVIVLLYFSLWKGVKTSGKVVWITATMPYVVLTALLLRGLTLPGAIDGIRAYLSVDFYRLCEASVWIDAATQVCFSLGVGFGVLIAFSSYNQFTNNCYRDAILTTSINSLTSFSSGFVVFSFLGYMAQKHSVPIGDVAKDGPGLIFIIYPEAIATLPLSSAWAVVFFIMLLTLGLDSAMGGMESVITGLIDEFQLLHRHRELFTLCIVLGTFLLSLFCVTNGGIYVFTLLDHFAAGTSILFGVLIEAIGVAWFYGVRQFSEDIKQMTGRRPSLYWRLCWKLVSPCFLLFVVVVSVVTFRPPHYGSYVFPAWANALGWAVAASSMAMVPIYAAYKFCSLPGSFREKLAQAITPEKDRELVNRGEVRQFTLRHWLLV
Protocol: as §1, §2

norepinephrine transporter site, sequence (Q63380 1-617): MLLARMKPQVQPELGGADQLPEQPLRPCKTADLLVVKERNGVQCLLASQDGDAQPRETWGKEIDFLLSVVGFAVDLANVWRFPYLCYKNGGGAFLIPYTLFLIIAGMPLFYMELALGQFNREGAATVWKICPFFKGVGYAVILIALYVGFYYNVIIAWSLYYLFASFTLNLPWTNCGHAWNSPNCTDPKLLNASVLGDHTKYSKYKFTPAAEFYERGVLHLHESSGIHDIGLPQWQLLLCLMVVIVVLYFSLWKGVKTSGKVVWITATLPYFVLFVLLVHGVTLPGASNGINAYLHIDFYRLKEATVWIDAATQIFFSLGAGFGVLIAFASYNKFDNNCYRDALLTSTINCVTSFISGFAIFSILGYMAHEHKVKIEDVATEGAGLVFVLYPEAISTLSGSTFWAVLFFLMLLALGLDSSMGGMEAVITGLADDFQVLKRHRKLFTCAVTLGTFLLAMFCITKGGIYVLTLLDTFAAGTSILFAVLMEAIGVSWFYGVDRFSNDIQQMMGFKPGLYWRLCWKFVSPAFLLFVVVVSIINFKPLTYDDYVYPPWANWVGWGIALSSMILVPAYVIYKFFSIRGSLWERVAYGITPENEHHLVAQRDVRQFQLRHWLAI

SMILES	inhibition at 0.1 µM [1]	inhibition at 10 µM [1]	IC50 (NMDA receptor [2])	IC50 (NMDA receptor [3]; read-out: fura2 data IC50, fura-2 [Ca2+]i)	inhibition at 0.1 µM [4]	inhibition at 10 µM [4]	IC50 (NMDA receptor [3]; fura-2 [Ca2+]i, read-out: fura2 data IC50)
NCCC(Oc1cccc(F)c1)c1cccc(F)c1 (stereo not drawn) [Compound 119, 3-(3-Fluorophenoxy)-3-(3-fluorophenyl)-1-propylamine]	8.9%	19.4%	87 nM	115 nM	1.9%	58.3%	
NCCC1c2ccccc2CCc2ccccc21 [Compound 156, 5-(2-Aminoethyl)-5H-10, 11-dihydrodibenzo [a,d] cycloheptene hydrochloride]							69 nM
CNCCC(Oc1ccc(C(F)(F)F)cc1)c1ccccc1 (stereo not drawn) [Fluoxetine]						78%	
Fc1ccc([C@@H]2CCNC[C@H]2COc2ccc3c(c2)OCO3)cc1 [Paroxetine, reference compound]	< 20%	50%			< 20%	97%	

Reference: patent EP1790337A2, “Methods and compounds for treating depression and other disorders” (priority 1998, dated 2000)
